Measurements reported in patent publication US6903132B2, “Non-peptide GnRH agents, pharmaceutical compositions and methods for their use” (Agouron Pharmaceuticals, Inc., priority 2002, dated 2005).

Key:
[1] = biological target: T1, human GnRH receptors (Homo sapiens, UniProt P30968); assay: Radioligand binding assay: inhibition of binding of 125I-GnRH-A to GnRH receptors (membranes); details: Human GnRH receptor; competition with 125I-GnRH-A; Ki calculated from IC50 (Cheng et al.)
T1 construct: expressed in transfected cells; host or cells: HEK 293
T1 sequence (P30968 1-328): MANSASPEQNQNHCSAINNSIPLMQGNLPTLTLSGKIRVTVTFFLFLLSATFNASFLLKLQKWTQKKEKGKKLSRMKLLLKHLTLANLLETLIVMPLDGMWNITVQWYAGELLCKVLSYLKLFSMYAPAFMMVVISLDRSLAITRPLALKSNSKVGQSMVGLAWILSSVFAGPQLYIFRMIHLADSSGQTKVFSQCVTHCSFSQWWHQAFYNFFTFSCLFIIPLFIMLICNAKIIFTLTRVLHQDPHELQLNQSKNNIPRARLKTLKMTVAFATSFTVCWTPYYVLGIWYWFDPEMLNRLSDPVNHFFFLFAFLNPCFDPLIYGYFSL
Description: (§1) HEK 293 cells stably transfected with mouse or human GnRH receptors as described above are grown in Dulbecco's high-glucose, modified Eagle's medium (DMEM) supplemented with 0.2% G418, 10% fetal bovine serum (FBS) and 100U/mL penicillin/streptomycin. GH3 cells stably transfected with the rat GnRH receptor (GGH3) were provided by Dr. William Chin (Harvard Medical School, Boston, Mass.). These cells are extensively characterized previously (Kaiser et al., 1997). The cells are grown in low glucose DMEM containing: 100U/mL penicillin/streptomycin, 0.6% G418 and 10% heat-inactivated FBS.
(§2) HEK 293 cells containing mouse or human receptors, or rat pituitaries (Pel Freez Biologicals, Rogers, Ark.) are homogenized in buffer A containing: 50 mM Tris (pH 7.4), 0.32 M sucrose, 2 mM EGTA, 1 mM PMSF, 5 μg/ml aprotinen, 5 μg/ml Pepstatin A, and 1 μg/ml leupeptin. Homogenized cells are centrifuged at 4° C. at 20,000×g for 25 minutes, re-suspended in buffer A and re-centrifuged at 4° C. at 20,000×g for an additional 25 minutes. Total membrane protein was determined with a BCA kit (Pierce, Rockford, Ill.). Membranes are stored at −70° C. at a final membrane protein concentration of approximately 5 mg/ml.
(§3) The radioiodinated agonist analog of GnRH, [des-Gly^10, D-Ala^6]GnRH ethylamide (^125I-GnRH-A), is used as the radioligand. One μg of GnRH-A diluted in 0.5 M phosphate buffer (pH 7.4) is added to an lodogen®-coated borosilicate glass tube (Pierce, Rockford, Ill.) containing 35 μl of 0.05 M phosphate buffer (pH 7.4-7.6) and 1 mCi of Na[^125I]. The reaction mixture is vortexed and incubated for 1 minute at room temperature. After one minute, the mixture is vortexed and allowed to incubate for an additional minute. 2 ml of 0.5 M acetic acid/1% BSA is added to the reaction tube and the mixture is added to a C18 Sep-Pak cartridge. The cartridge is washed with subsequent washes of 5 ml H2O and 5 ml 0.5 M acetic acid and then eluted with 5×1 ml of 60%CH3CN/40% 0.5 M acetic acid. The eluate is diluted with 3× volume of HPLC buffer A (0.1% TFA in H2O) and loaded onto a C18 column. The iodinated product is eluted over 20-25 min with a gradient of 25-100% CH3CN containing 0.1% TFA. The radioactive fractions (750 μl/fraction) are collected into clean polypropylene tubes containing 100 μl of 10% BSA. Fractions are assessed for biological activity by radiolig and binding. Specific activity of the radioligand was approximately 2200 Ci/mmol.
(§4) Membranes are diluted to 0.01-0.5 mg/ml (depending upon the species of receptor) with assay buffer containing 50 mM HEPES (pH 7.4), 1 mM EDTA, 2.5 mM MgCl2, and 0.1% BSA. Membranes (diluted to utilize similar receptor numbers between assays) are incubated with approximately 0.04-0.06 nM ^125I-GnRH-A in the presence or absence of competing agents (0.1-10,000 nM) in a total volume of 200 μl in 96-well polypropylene plates for 1 hour at room temperature. Assays are stopped by rapid filtration onto 96-well GF/C filters soaked in 0.1% polyethylenimine (PEI) utilizing a Packard 96-well cell harvester. Filters are washed three times with ice-cold PBS (50 mM NaPO4, 0.9% NaCl, 2 mM MgCl2, and 0.02% NaN3, pH 7.4). 35 μl of scintillation cocktail is added to each filter well and filters are counted on a Packard Topcount. Control dose-response curves are generated to GnRH (0.1 nM-100 nM) in each competition binding experiment. Ki values were calculated from IC50 values according to Cheng et al., Biochemical Pharmacol. 22: 3099-3108, 1973. [formula]

[2] = biological target: T2, rat GnRH receptor (Rattus norvegicus, UniProt P30969); assay: as above; details: competition with 125I-GnRH-A, Ki calculated from IC50 (Cheng et al.)
T2 construct: rat pituitaries (Pel Freez Biologicals, Rogers, Ark.) are homogenized in buffer A; tissue Pel Freez Biologicals; host or cells: rat pituitaries
T2 sequence (P30969 1-327): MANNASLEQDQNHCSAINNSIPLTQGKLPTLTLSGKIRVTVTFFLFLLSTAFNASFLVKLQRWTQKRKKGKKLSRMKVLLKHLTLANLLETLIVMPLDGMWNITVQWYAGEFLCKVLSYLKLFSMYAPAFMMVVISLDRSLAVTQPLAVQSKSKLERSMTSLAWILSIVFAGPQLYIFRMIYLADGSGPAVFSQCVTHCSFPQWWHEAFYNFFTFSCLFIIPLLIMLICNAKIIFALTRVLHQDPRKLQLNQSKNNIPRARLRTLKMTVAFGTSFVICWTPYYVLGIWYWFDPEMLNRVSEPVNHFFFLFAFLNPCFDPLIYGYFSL
Description: as §1, §2, §3, §4

`Cc1cc2c(cc1Cc1ccc(C(=O)NNc3ncc(C(F)(F)F)cc3Cl)o1)C(C)(C)OC2(C)C` [Example E3, N′-[3-chloro-5-(trifluoromethyl)pyridin-2-yl]-5-[(1,1,3,3,6-pentamethyl-1,3-dihydro-2-benzofuran-5-yl)methyl]-2-furohydrazide] was tested, and the Ki [1] was 840 nM and the Ki [2] was 91 nM.

For `Cc1ccc(N(C)NC(=O)c2ccc(Oc3cc4c(cc3C)C(C)(C)C(C)CC4(C)C)o2)nn1` (centres unmarked) [Example I16, 5-(3,5,5,6,8,8-Hexamethyl-5,6,7,8-etrahydro-naphthalen-2-yloxy)-furan-2-carboxylic acid N′-methyl-N′-(6-methyl-pyridazin-3-yl)-hydrazide], the Ki [1] was 9 nM and the Ki [2] was 18 nM.

`Cc1cc2c(c(Br)c1Oc1ccc(C(=O)NNc3cc(C)c4c(C)nn(C)c4n3)o1)C(C)(C)CC2` [Example I22, 5-(4-Bromo-3,3,6-trimethyl-indan-5-yloxy)-furan-2-carboxylic acid N′-(1,3,4-trimethyl-1H-pyrazolo[3,4-b]pyridin-6-yl)-hydrazide] gave a Ki [1] of 10 nM and a Ki [2] of 52 nM.

Molecule `Cc1cc2c(cc1Cc1ccc(C(=O)NNc3ccc4ccccc4n3)o1)C(C)(C)OC2(C)C` [Example E4, 5-(1,1,3,3,6-Pentamethyl-1,3-dihydro-isobenzofuran-5-ylmethyl)-furan-2-carboxylic acid N′-quinolin-2-yl-hydrazide] has a Ki [1] of 24 nM and a Ki [2] of 23 nM.

For `Cc1cc2c(cc1Cc1ccc(C(=O)NNc3cc(C)c4c(C)nn(C)c4n3)o1)C(C)(C)CCC2` [Example J26, 5-(3,8,8-Trimethyl-5,6,7,8-tetrahydro-naphthalen-2-ylmethyl)-furan-2-carboxylic acid N′-(1,3,4-trimethyl-1H-pyrazolo[3,4-b]pyridin-6-yl)-hydrazide], the Ki [1] was 1.6 nM and the Ki [2] was 17 nM.

Work on `Cc1cc2c(cc1Oc1ccc(C(=O)NNc3ncc(C(F)(F)F)cc3Cl)o1)C(C)(C)C(C)C2(C)C` (centres unmarked) [Example M1, 5-(1,1,2,3,3,6-Hexamethyl-indan-5-yloxy)-furan-2-carboxylic acid N′-(chloro-trifluoromethyl-pyridin-2-yl)-hydrazide] yielded a Ki [1] of 23 nM and a Ki [2] of 11 nM.

`Cc1cc2c(cc1Oc1ccc(C(=O)NNc3ccc4ccccc4n3)o1)C(C)(C)C(C)C2(C)C` (centres unmarked) [Example M3, 5-(1,1,2,3,3,6-Hexamethyl-indan-5-yloxy)-furan-2-carboxylic acid N′-quinolin-2-yl-hydrazide] was tested, and the Ki [1] was 4.1 nM and the Ki [2] was 2.9 nM.

Work on `Cc1cc2c(cc1Oc1ccc(C(=O)NNc3ccc4ccccc4n3)o1)C(C)(C)OC2` [Example N3, 5-(3,3,6-Trimethyl-1,3-dihydro-isobenzofuran-5-yloxy)-furan-2-carboxylic acid N′-quinolin-2-yl-hydrazide] yielded a Ki [1] of 130 nM and a Ki [2] of 100 nM.

Molecule `Cc1cc2c(cc1Oc1ccc(C(=O)NNc3ncnc4scc(C)c34)o1)C(C)(C)CC(C)C2(C)C` (centres unmarked) [Example I15, 5-(3,5,5,6,8,8-Hexamethyl-5,6,7,8-tetrahydro-naphthalen-2-yloxy)-furan-2-carboxylic acid N′-(5-methyl-thieno[2,3-d]pyrimidin-4-yI)-hydrazide] has a Ki [1] of 7.2 nM and a Ki [2] of 19 nM.

`CCN(CC)C(=O)C1(c2ccc(C)c(Cc3ccc(C(=O)NNc4cc(C)c5c(C)nn(C)c5n4)o3)c2)CC1` [Example J20, N,N-diethyl-1-{4-methyl-3-[(5-{[2-(1,3,4-trimethyl-1H-pyrazolo[3,4-b]pyridin-6-yl)hydrazino]carbonyl}-2-furyl)methyl]phenyl} cyclopropanecarboxamide] was tested, and the Ki [1] was 1410 nM.

`Cc1cc2c(cc1Oc1ccc(C(=O)NNc3nc(N)nc(C4CC4)n3)o1)C(C)(C)CC2` [Example I13, N′-(4-Amino-6-cyclopropyl-1,3,5-triazin-2-yl)-5-[(3,3,6-trimethyl-2,3-dihydro-1H-inden-5-yl)oxy]-2-furohydrazide] showed a Ki [1] of 40 nM.

Work on `Cc1cc2c(cc1Oc1ccc(C(=O)NNc3ccc(C(F)(F)F)cn3)o1)C(C)(C)C(C)C2(C)C` (centres unmarked) [Example M2, 5-(1,1,2,3,3,6-Hexamethyl-indan-5-yloxy)-furan-2-carboxylic acid N′-(5-trifluoromethyl-pyridin-2-yl)-hydrazide] yielded a Ki [1] of 19 nM and a Ki [2] of 29 nM.

`Cc1c(C)c(C)c(Cc2ccc(C(=O)NNc3cc(C)c4c(C)nn(C)c4n3)o2)c(C)c1C` [Example J5, 5-(2,3,4,5,6-Pentamethylbenzyl)-N′-(1,3,4-trimethyl-1H-pyrazolo[3,4-b]pyridin-6-yl)-2-furohydrazide] gave a Ki [1] of 1400 nM.

For `COc1c(Cl)c(C)c(Cl)c(C)c1Cc1ccc(C(=O)NNc2cc(C)c3c(C)nn(C)c3n2)o1` [Example J30, 5-(3,5-Dichloro-2-methoxy-4,6-dimethyl-benzyl)-furan-2-carboxylic acid N′-(1,3,4-trimethyl-1H-pyrazolo[3,4-b]pyridin-6-yl)-hydrazide], the Ki [1] was 480 nM.

Work on `Cc1cc2c(cc1Cc1ccc(C(=O)NNc3ccccn3)o1)C(C)(C)CCC2(C)C` [Example C10, 5-[(3,5,5,8,8-Pentamethyl-5,6,7,8-tetrahydro-2-napthalenyl)methyl]-N′-(2-pyridinyl)-2-furohydrazide] yielded a Ki [1] of 350 nM.

Work on `COc1cc(OC)c(Cc2ccc(C(=O)NNc3cc(C)c4c(C)nn(C)c4n3)o2)c(OC)c1` [Example J10, 5-(2,4,6-trimethoxybenzyl)-N-(1,3,4-trimethyl-1H-pyrazolo[3,4-b]pyridin-6-yl)-2-furohydrazide] yielded a Ki [1] of 1690 nM.

Work on `Cc1cc2c(cc1Cc1ccc(C(=O)NNc3ccc(C(F)(F)F)cn3)o1)C(C)(C)OC2(C)C` [Example E5, 5-(1,1,3,3,6-Pentamethyl-1,3-dihydro-isobenzofuran-5-ylmethyl)-furan-2-carboxylic acid N′-(5-trifluoromethyl-pyridin-2-yl)-hydrazide] yielded a Ki [1] of 390 nM.

For `CC(=O)N1CCC(C)(C)c2cc(Oc3ccc(C(=O)NNc4cc(C)c5c(C)nn(C)c5n4)o3)c(Cl)cc21` [Example I1, 5-(1-Acetyl-7-chloro-4,4-dimethyl-1,2,3,4-tetrahydro-quinolin-6-yloxy)-furan-2-carboxylic acid N′-(1,3,4-trimethyl-1H-pyrazolo[3,4-b]pyridin-6-yl)-hydrazide], the Ki [1] was 630 nM.

`Cc1cc(C)c(Cc2ccc(C(=O)NNc3cc(C)c4c(C)nn(C)c4n3)o2)c(C)c1` [Example J3, 5-(Mesitylmethyl)-N′-(1,3,4-trimethyl-1H-pyrazolo[3,4-b]pyridin-6-yl)-2-furohydrazide] showed a Ki [1] of 400 nM.
